Activity calls are given as the source filed them. The rule behind the calls is not given here.
Key:
[1] = target: Acetylcholine receptor; alpha1/beta1/delta/gamma (Homo sapiens) (UniProt P02708+P07510+P11230+Q07001); test: Intrinsic activity at alpha-1-beta-1-gamma-delta nAChR receptor expressed in human TE671/RD cells assessed as 86Rb+ efflux at 5 to 100 uM by liquid scintillation counting; type: cell-based
Mus musculus [2] = organism: Mus musculus; test: Antinociceptive activity in ICR mouse D'Amour and Smith model of pain assessed as inhibition of nicotine-induced response by tail-flick test; type: functional
Mus musculus [3] = organism: Mus musculus; test: Antinociceptive activity in ICR mouse assessed as inhibition of nicotine-induced response by hotplate test; type: functional
Mus musculus [4] = organism: Mus musculus; test: Effect on body temperature in ICR mouse assessed as inhibition of nicotine-induced hypothermic response; type: functional
[5] = target: Sodium-dependent noradrenaline transporter (Homo sapiens, UniProt P23975); test: Inhibition of [3H]norepinephrine uptake at human NET expressed in HEK293 cells; type: cell-based
[6] = target: Sodium-dependent dopamine transporter (Homo sapiens, UniProt Q01959); test: Inhibition of [3H]dopamine uptake at human DAT expressed in HEK293 cells; type: cell-based
[7] = target: Neuronal acetylcholine receptor; alpha4/beta2 (Homo sapiens) (UniProt P17787+P43681); test: Intrinsic activity at human alpha4beta2 nAChR receptor expressed in human SH-SY5Y cells assessed as 86Rb+ efflux at 5 to 100 uM by liquid scintillation counting; type: cell-based
[8] = target: Neuronal acetylcholine receptor; alpha4/beta4 (Homo sapiens) (UniProt P30926+P43681); test: Intrinsic activity at human alpha4beta4 nAChR receptor expressed in human SH-SY5Y cells assessed as 86Rb+ efflux at 5 to 100 uM by liquid scintillation counting; type: cell-based
Mus musculus [9] = organism: Mus musculus; test: Effect on behavioral activity in ICR mouse assessed as inhibition of nicotine-induced locomotory response by locomotor assay; type: functional
[10] = target: Neuronal acetylcholine receptor; alpha3/beta4 (Homo sapiens) (UniProt P30926+P32297); test: Intrinsic activity at alpha3beta4 nAChR receptor in human SH-SY5Y cells assessed as 86Rb+ efflux at 5 to 100 uM by liquid scintillation counting; type: cell-based
[11] = target: Sodium-dependent serotonin transporter (Homo sapiens, UniProt P31645); test: Inhibition of [3H]serotonin uptake at human SERT expressed in HEK293 cells; type: cell-based
Sodium-dependent serotonin transporter, sequence (P31645 whole entry): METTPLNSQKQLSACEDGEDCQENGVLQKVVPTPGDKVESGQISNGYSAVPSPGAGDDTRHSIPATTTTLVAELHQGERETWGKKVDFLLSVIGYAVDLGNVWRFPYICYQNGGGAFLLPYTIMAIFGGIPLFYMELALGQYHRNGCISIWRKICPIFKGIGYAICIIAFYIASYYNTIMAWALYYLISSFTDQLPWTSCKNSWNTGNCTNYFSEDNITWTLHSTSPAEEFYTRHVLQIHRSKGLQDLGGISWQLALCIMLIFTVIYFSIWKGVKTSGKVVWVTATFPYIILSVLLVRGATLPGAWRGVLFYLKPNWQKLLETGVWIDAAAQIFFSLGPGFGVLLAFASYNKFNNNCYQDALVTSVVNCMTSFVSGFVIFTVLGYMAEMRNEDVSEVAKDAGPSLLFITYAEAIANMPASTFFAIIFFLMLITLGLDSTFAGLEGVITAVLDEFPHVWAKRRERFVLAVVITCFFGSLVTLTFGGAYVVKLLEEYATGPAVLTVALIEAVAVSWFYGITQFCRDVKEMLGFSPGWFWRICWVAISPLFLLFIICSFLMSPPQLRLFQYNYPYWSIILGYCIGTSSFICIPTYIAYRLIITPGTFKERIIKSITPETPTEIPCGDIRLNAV

Sodium-dependent dopamine transporter, sequence (Q01959 whole entry): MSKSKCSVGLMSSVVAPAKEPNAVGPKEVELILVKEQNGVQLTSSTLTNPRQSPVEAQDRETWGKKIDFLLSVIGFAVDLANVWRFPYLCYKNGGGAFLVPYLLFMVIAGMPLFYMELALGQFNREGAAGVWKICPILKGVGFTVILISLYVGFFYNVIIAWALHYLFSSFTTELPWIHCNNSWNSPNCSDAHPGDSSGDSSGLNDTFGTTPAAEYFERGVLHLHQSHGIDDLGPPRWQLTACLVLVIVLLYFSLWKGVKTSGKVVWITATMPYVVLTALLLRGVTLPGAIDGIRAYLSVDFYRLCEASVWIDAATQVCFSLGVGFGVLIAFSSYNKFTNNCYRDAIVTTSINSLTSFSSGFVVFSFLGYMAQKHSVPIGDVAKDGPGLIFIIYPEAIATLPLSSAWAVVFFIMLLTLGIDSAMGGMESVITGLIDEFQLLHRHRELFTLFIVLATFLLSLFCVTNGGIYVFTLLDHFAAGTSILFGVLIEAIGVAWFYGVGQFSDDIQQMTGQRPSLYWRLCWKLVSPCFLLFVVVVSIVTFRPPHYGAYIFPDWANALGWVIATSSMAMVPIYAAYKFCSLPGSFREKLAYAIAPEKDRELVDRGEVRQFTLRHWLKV
Sodium-dependent noradrenaline transporter, sequence (P23975 whole entry): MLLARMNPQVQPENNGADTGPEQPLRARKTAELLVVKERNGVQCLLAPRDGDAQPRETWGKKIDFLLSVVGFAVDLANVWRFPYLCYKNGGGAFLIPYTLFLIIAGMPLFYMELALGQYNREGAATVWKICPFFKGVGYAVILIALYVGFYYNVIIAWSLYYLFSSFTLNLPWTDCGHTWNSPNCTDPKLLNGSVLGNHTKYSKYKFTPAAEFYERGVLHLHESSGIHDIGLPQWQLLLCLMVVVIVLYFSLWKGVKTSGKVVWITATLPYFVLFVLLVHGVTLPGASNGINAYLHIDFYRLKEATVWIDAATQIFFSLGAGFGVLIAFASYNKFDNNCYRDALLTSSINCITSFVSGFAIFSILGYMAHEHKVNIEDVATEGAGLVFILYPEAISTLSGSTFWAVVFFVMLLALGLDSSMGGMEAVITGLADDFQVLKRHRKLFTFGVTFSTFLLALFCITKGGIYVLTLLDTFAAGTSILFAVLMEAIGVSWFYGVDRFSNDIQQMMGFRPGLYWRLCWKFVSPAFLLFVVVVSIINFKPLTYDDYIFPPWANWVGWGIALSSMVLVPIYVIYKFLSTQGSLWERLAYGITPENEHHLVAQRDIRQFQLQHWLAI

Row | SMILES | Activity [1] | AD50 (Mus musculus [2]) | AD50 (Mus musculus [3]) | AD50 (Mus musculus [4]) | IC50 [5] [µM] | IC50 [6] [µM] | Activity [7] | Activity [8] | AD50 (Mus musculus [9]) | Activity [10] | IC50 [11] [µM]
1 | Cc1cccc(C(=O)C(C)NC2CCCC2)c1 (stereo unspecified) | inactive | inactive | inactive | inactive | 8.7 | 0.842 | inactive | inactive | inactive | inactive | 
2 | CC(C(=O)c1cccc([N+](=O)[O-])c1)N1CCCCC1 (stereo unspecified) | inactive | inactive | inactive | inactive |  | 10 | inactive | inactive | inactive | inactive | 
3 | Cc1cc(C(=O)C(C)NC(C)(C)C)ccc1Br (stereo unspecified) | inactive | 0.015 mg/kg | inactive | inactive | 7.25 |  | inactive | inactive | inactive | inactive | 
4 | CC(C(=O)c1cccc(Cl)c1)N(C)C(C)(C)C (stereo unspecified) | inactive | 0.46 mg/kg | 8.7 mg/kg | inactive | 1.57 | 6 | inactive | inactive | inactive | inactive | 
5 | CC(NC(C)(C)C)C(=O)c1ccc(F)c(F)c1 (stereo unspecified) | inactive | 0.05 mg/kg | inactive | inactive | 6.48 | 7.98 | inactive | inactive | inactive | inactive | 
6 | CC(NC(C)(C)C)C(=O)c1ccc(Cl)c(Cl)c1 (stereo unspecified) | inactive | 0.28 mg/kg | inactive | inactive | 1.67 | 0.463 | inactive | inactive | inactive | inactive | 8.8
7 | Cc1cccc(C(=O)C(C)NC(C)(C)C)c1 (stereo unspecified) | inactive | 0.05 mg/kg | 6.8 mg/kg | 7.8 mg/kg | 6.2 |  | inactive | inactive | 4.3 mg/kg | inactive | 
8 | CC(NC1CCCC1)C(=O)c1cccc(Cl)c1 (stereo unspecified) | inactive | 0.014 mg/kg | inactive | inactive |  |  | inactive | inactive | inactive | inactive | 
9 | CC(NC(C)(C)C)C(=O)c1cccc(F)c1 (stereo unspecified) | inactive | inactive | inactive | inactive | 6.5 | 2.32 | inactive | inactive | inactive | inactive | 
10 | CC(CNC(C)(C)C)C(=O)c1cccc(Cl)c1 (stereo unspecified) | inactive | 10.5 mg/kg | inactive | 16 mg/kg |  |  | inactive | inactive | inactive | inactive | 
11 | CCCC(NC(C)(C)C)C(=O)c1cccc(Cl)c1 (stereo unspecified) | inactive | 10 mg/kg | inactive | inactive | 0.37 | 0.056 | inactive | inactive | inactive | inactive | 
12 | CCC(NC(C)(C)C)C(=O)c1cccc(Cl)c1 (stereo unspecified) | inactive | 0.5 mg/kg | inactive | inactive |  | 0.209 | inactive | inactive | 11.7 mg/kg | inactive | 
13 | CC(NC(C)(C)C)C(=O)c1cccc([N+](=O)[O-])c1 (stereo unspecified) | inactive | inactive | inactive | inactive |  |  | inactive | inactive | inactive | inactive | 
14 | COc1cccc(C(=O)C(C)NC(C)(C)C)c1 (stereo unspecified) | inactive | 1.6 mg/kg | inactive | inactive |  | 3.62 | inactive | inactive | inactive | inactive | 
15 | CC(NC1CCCC1)C(=O)c1cccc([N+](=O)[O-])c1 (stereo unspecified) | inactive | inactive | inactive | inactive |  |  | inactive | inactive | inactive | inactive | 
16 | CC(NC(C)(C)C)C(=O)c1cccc(Br)c1 (stereo unspecified) | inactive | 0.12 mg/kg | 14.9 mg/kg | 11.5 mg/kg | 5.6 | 0.511 | inactive | inactive | 27.1 mg/kg | inactive | 
17 | CCCC(NC(C)(C)C)C(=O)c1ccc(Cl)c(Cl)c1 (stereo unspecified) | inactive | 0.13 mg/kg | 15 mg/kg | 17.5 mg/kg |  | 0.031 | inactive | inactive | inactive | inactive | 2.3
18 | CC(NC(C)(C)C)C(=O)c1cc(Cl)cc(Cl)c1 (stereo unspecified) | inactive | 0.028 mg/kg | 4.3 mg/kg | inactive | 14 |  | inactive | inactive | inactive | inactive | 
19 | CC(NC1CCCC1)C(=O)c1cccc(Br)c1 (stereo unspecified) | inactive | inactive | inactive | inactive | 2.53 | 0.845 | inactive | inactive | inactive | inactive | 
20 | Cc1ccc(C(=O)C(C)NC(C)(C)C)cc1Cl (stereo unspecified) | inactive | 0.2 mg/kg | 7.2 mg/kg | 10 mg/kg | 2.04 | 0.41 | inactive | inactive | 11 mg/kg | inactive | 
21 | CC(NC(C)(C)C)C(=O)c1cccc(Cl)c1 (stereo unspecified) [BUPROPION] | inactive | 1.2 mg/kg | 15 mg/kg | 9.2 mg/kg |  |  | inactive | inactive |  | inactive | 
22 | CC(C(=O)c1cccc(Cl)c1)N(C)C (stereo unspecified) | inactive | 5.2 mg/kg | inactive | inactive | 1.52 | 1.75 | inactive | inactive | inactive | inactive | 
23 | CC(NC(C)(C)C)C(=O)c1cccs1 (stereo unspecified) | inactive | 0.077 mg/kg | inactive | inactive |  |  | inactive | inactive | inactive | inactive | 
24 | CC(C(=O)c1cccc(Cl)c1)N1CCCCC1 (stereo unspecified) | inactive | 0.05 mg/kg | inactive | inactive | 2.52 | 0.852 | inactive | inactive | inactive | inactive | 
25 | Cc1ccc(C(=O)C(C)NC(C)(C)C)cc1 (stereo unspecified) | inactive | 0.09 mg/kg | 7.75 mg/kg | 8.8 mg/kg |  | 1.95 | inactive | inactive | 11.8 mg/kg | inactive | 
26 | CC(NC1CCCC1)C(=O)c1cccc(F)c1 (stereo unspecified) | inactive | inactive | inactive | inactive | 2.85 | 0.693 | inactive | inactive | inactive | inactive | 
